Patent publication US20090149375A1, “USE OF THE MST PROTEIN FOR THE TREATMENT OF A THROMBOEMBOLIC DISORDER” (SANOFI-AVENTIS, priority 2005, published 2009)

Target: T1, GST-Mst1 (Homo sapiens, UniProt Q13043)
T1 sequence (Q13043 1-487): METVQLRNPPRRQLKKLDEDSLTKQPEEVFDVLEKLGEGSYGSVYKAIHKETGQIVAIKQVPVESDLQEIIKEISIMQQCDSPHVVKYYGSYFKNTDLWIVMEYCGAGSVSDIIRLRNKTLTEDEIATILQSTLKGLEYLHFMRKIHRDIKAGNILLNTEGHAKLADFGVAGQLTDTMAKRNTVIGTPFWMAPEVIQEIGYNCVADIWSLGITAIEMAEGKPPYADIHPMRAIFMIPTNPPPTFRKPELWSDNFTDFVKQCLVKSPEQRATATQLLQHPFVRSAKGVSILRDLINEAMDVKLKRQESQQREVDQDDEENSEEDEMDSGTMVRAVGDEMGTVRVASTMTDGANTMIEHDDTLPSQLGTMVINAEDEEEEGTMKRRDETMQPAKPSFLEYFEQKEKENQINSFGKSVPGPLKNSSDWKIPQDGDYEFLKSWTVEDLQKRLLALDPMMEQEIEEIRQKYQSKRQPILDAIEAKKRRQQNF
Experiment: GST-Mst1 in vitro kinase assay (ATP consumption assay)
Settings: result in words

Which results are given for `CN[C@@H]1C[C@H]2O[C@@](C)([C@@H]1OC)n1c3ccccc3c3c4c(c5c6ccccc6n2c5c31)C(=O)NC4` [staurosporine]?
inhibition of MST1 kinase activity (ATP consumption): completely inhibit; inhibition of MST1 kinase activity (ATP consumption) (listed as Staurosporine): inhibit completely
